Experimental data: patent publication US12508243B2, “Compositions and methods for treating cancer and improving epithelial homeostasis” (The Regents of the University of California, priority 2019, dated 2025)
“Also recorded” adds a separate entry of the source.

Tests used:
Trp63 = Trp63 expression with CHIR and WIC1 treatment (FIG. 4F); type: cell-based; settings: WIC1 treatment of CHIR-induced expression
Procedure: (§1) RNA was isolated with the RNeasy Mini Kit (Qiagen 74104) following manufacturer's protocol and quantified using a NanoDrop Spectrophotometer (ThermoFisher). cDNA synthesis was performed using the TaqMan Reverse Transcription Reagents (ThermoFisher) as indicated by the company. qPCR was then performed using the TaqMan PCR Master Mix (Applied Biosystems) on the StepOne-Plus Real Time PCR System.

mouse ABSCs (mABSCs) [1] = experiment: EdU proliferation assay in mouse ABSCs, submerged culture; type: cell-based; settings: 1 μM CHIR + 1 μM inhibitor, submerged culture 4 days
Procedure: (§2) Mouse and human ABSCs were isolated following a previously published method. Briefly, mouse tracheas were dissected, cleaned, and incubated in 16 U/mL dispase for 30 minutes (1 hour for human) at room temperature. Tracheas were then incubated in 0.5 mg/mL DNase for another 30 minutes (1 hour for human) at room temperature. Epithelium was stripped and incubated in 0.1% Trypsin-EDTA for 30 minutes (1 hour for human) shaking at 37° C. to generate a single cell suspension. Isolated cells were passed through a 40 μm strainer and stained with fluorophore-conjugated antibodies against ITGA6 and TROP2. ITGA6+ TROP2+ cells were obtained via FACS that was completed using the BD FACSAria cell sorter.
(§3) In vitro proliferation was studied using the Click-iT EdU incorporation assay kit (Invitrogen C10337) following the company's protocol. Briefly, mouse and human AB SC cultures were treated with 10 μM EdU 6-8 hours prior to commencing IFs. Cells were fixed with […] for 15 minutes followed by permeabilization in 0.5% Triton-X for 20 minutes. EdU cocktail was incubated for 30 minutes in darkness followed by immunocytochemistry.
(§4) To determine whether the pathobiology observed in human patients can be modeled in vitro, mouse ABSCs (mABSCs) were treated with GSK3β inhibitor CHIR99021 (CHIR) under submerged culture conditions for 4 days to activate canonical Wnt signaling (FIG. 2A).

human ABSCs [2] = experiment: Air-liquid interface (ALI) differentiation assay with human ABSCs; type: cell-based
Procedure: (§5) 24-well 6.5 mm transwells with 0.4 μm pore polyester membrane inserts were coated with 0.2 mg/mL collagen type I dissolved in 60% ethanol and allowed to air dry. ABSCs were seeded at 100,000 cells per well and allowed to grow in the submerged phase of culture for 4-5 days with 500 μl media in the basal chamber and 200 μl media in the apical chamber. ALI cultures were then established and culture with only 500 μl media in the basal chamber, and cultures harvested at varying timepoints for immunofluorescence studies. Media was changed every other day and cultures were maintained at 37° C. and 5% C02. ABSCs were treated with the indicated concentrations of GSK3XV (Sigma 361558), CHIR or WIC1.
(§6) Mouse and human ABSCs were fixed in […] for 15 minutes followed by permeabilization with 0.50% Triton-X for 10 minutes. Cells were blocked using serum-free protein block (Dako X090930) for one hour at room temperature and overnight primary antibody incubation. Secondary antibodies were incubated for 1 hour in darkness, washed, and mounted using Vectashield hardest mounting medium with DAPI (Vector Labs H-1500). IF images were obtained using an LSM780 or LSM880 Zeiss confocal microscope and composite images generated using Fiji.
(§7) To assess whether WIC1 could reverse Wnt/β-catenin-induced ABSC hyperproliferation, human ABSCs were treated with either DMSO, CHIR, or CHIR+WIC1. […] It was then sought to determine if WIC1 could promote ABSC differentiation to ciliated cells under ALI conditions.

[3] = test system: Wnt signaling target genes CCND1, MYC, CTNNB1; experiment: qRT-PCR of downstream Wnt signaling target genes in ABSCs; type: cell-based, human; settings: ABSCs under ALI conditions
Procedure: as §1, §7

p-β-catenin^Y489 = experiment: Immunofluorescence staining of phosphorylated β-catenin localization in ABSCs; type: cell-based, mouse; settings: WIC1 added to CHIR-treated cultures
Procedure: as §6, §4

[4] = test system: TCF/LEF luciferase reporter; experiment: TCF/LEF luciferase reporter assay in transduced BEAS2B cells (CHIR-induced); type: cell-based, human
Procedure: BEAS2B cells (ATCC CRL-9609) were seeded in a 6-well plate and infected with Cignal lentiviral particles containing a TCF/LEF luciferase reporter (Qiagen CLS-018L). Cells were spin infected at 37° C. for one hour using a multiplicity of infection of 20. Cells were selected with 0.6 μg/mL puromycin to isolate stably expressing clones.
(§8) For luciferase reporter assays conducted outside of the high-throughput drug screen, BEAS2B cells were seeded in a 96-well plate at 20,000 cells per well. The following day, cells were with treated DMSO, 5 μM CHIR99021 (CHIR; Tocris 4423), or 5 μM CHIR plus WIC2 (Key Organics GP-0355), Coumarin (Sigma C4261), or WIC1 for 24 hours. Lysis reactions were conducted using BrightGlo (Promega E1910) and incubated for two minutes at room temperature prior to transferring luminescence reactions to white-bottom, white-walled 96-well plates (Costar). Toxicity assays were conducted by adding Cell Titer Glo reagent (Promega) following manufacturer's protocol. Luminescence readings were conducted using the Clariostar plate reader.
In light of the finding that Wnt/β-catenin signaling drives ABSC hyperproliferation, a small molecule inhibitors of the pathway that could restore airway homeostasis. A high-throughput drug screen was established to identify compounds capable of reducing TCF/LEF activity measured by a luciferase reporter induced by CHIR treatment in a 384-well format (FIG. 3A). Briefly, white-bottom 384-well plates (Greiner One) were precoated overnight with 0.01 mg/mL fibronectin from human plasma (Sigma F0895), 0.03 mg/mL rat tail collagen type I (Corning 354249), and 0.01 mg/mL BSA (ThermoFisher BP-9706) diluted in 50 uL of Airway Epithelial Cell Growth Medium (PromoCell C21060). Precoat was then aspirated and washed using 100 μL the BioTek EL406. A custom V&P pin tool mounted to a Beckman FX liquid handler was then used to pin […] of 10 mM stock compound. 2,000 BEAS2B cells per well were then seeded using the Multidrop. Cells were therefore treated with 1% DMSO, 5 μM CHIR, or 5 μM CHIR+10 μM pinned compound and incubated for 24 hours at 37° C. and 5% CO2. […] 25 μL BrightGlo (Promega) was subsequently added to each well using the BioTek EL405 and incubated for 2 minutes prior reading luminescence values with the Envision plate reader (FIG. 3B). […] Z′ factor values were used to assess assay quality and was calculated by: Z′=1-3(SD Total+SDBackground)/(MeanTotal−MeanBackground) where SDTotal and MeanTotal are the standard deviation and mean of signal for CHIR-treated wells, and SDBackground and MeanBackground are the standard deviation and mean of signal for DMSO-treated wells. The Z′ factor value was calculated to be 0.82.

TP63 = experiment: qRT-PCR of TP63 expression in BEAS2B cells; type: cell-based, human; settings: CHIR plus WIC1
Procedure: as §1

mouse ABSCs (mABSCs) [5] = experiment: Air-liquid interface (ALI) differentiation assay with mouse ABSCs; type: cell-based; settings: mABSCs, ALI
Procedure: as §5
Mouse ABSCs were grown in MTEC Plus media and MTEC serum-free media during the submerged and ALI phases of culture, respectively. MTEC base media is DMEM/Ham's F12 50/50 (Corning 15090CV). Table S1 and Table S2 indicate the media components and concentrations for MTEC Plus and MTEC serum-free media, respectively.
as §6, with “Fiji. […]” for “Fiji.”

BEAS2B cells [6] = experiment: Cell Titer Glo toxicity assay in BEAS2B cells; type: cell-based, human
Procedure: as §8

human ABSCs [7] = experiment: Proliferation of human ABSCs treated with DMSO, CHIR or CHIR+WIC1; type: cell-based; settings: CHIR+WIC1 vs CHIR
Procedure: as §2, §3, §7

BEAS2B cells [8] = experiment: Hoechst stain toxicity assay (nuclei count) in BEAS2B cells; type: cell-based, human; settings: CHIR+10 uM compound, 24 hours

For `CCN1CCN(c2ccc(NC(=O)c3cc4ccccc4oc3=O)cc2)CC1` [WIC1], the Trp63 expression (Trp63) was “substantially reversed”, the “mABSC proliferation (EdU incorporation)” value (mouse ABSCs (mABSCs) [1]) was “decreased mABSC proliferation to a similar degree” and the Ciliated cell differentiation (human ABSCs [2]; ABSCs, ALI, 100 nM vs DMSO) was “significantly induced ciliated cell differentiation; also recorded: increased differentiation to ciliated cells”. For the same molecule, the Ciliated cell differentiation (human ABSCs [2]; in vitro, concentration not given) was “promoted ciliated cell differentiation”, the “mRNA expression of downstream Wnt signaling target genes (CCND1, MYC, CTNNB1)” value [3] was “decreased mRNA expression” and the “Nuclear localization of p-β-catenin^Y489” value (p-β-catenin^Y489) was “decreased the nuclear localization”. For the same molecule, the “TCF/LEF activity, inhibitor comparison” value ([4]; 100 nM and 1 μM, WIC1, MSAB, LF3, ICG001 compared) was “most potent inhibitor”, the “TCF/LEF luciferase reporter activity” value ([4]; CHIR-induced reporter, single treatment vs CHIR) was “decreased TCF/LEF luciferase reporter activity; also recorded: decreases TFC/LEF luciferase reporter activity; also recorded: suppressed TCF/LEF activity” and the “TCF/LEF luciferase reporter activity, dose course” value ([4]; CHIR-induced reporter, various concentrations) was “stepwise decrease in TCF/LEF activity; also recorded: Higher concentrations of WIC1 decrease TFC/LEF luciferase reporter activity to a greater extent”. For the same molecule, the TP63 expression (TP63) was “reduced”, the “Proportion of ciliated cells” value (mouse ABSCs (mABSCs) [5]; 100 nM inhibitor vs DMSO) was “induced a greater proportion of ciliated cells” and the “Percentage of ciliated cells” value (mouse ABSCs (mABSCs) [5]; 1 μM inhibitor vs DMSO) was “no effect on the percentage of ciliated cells”. The “Toxicity by Cell Titer Glo” value (BEAS2B cells [6]; 10 μM) was “non-toxic”, the “Toxicity by Cell Titer Glo” value (BEAS2B cells [6]; various concentrations) was “minimal toxicity at each concentration” and the “Human ABSC proliferation” value (human ABSCs [7]) was “significant reduction in ABSC proliferation; also recorded: reduced Wnt/β-catenin-driven human ABSC hyperproliferation”. For the same molecule, the “Toxicity by Hoechst stain” value (BEAS2B cells [8]) was “no toxicity; also recorded: minimal toxicity”.
